Measured values from patent US20200172974A1, “BIOMARKER FOR ANTI-TNF THERAPY IN RETINAL DISEASES” (HADASIT MEDICAL RESEARCH SERVICES & DEVELOPMENT LTD., priority 2017, published 2020).

Tests used:
[1] = system: choroidal neovascularization (CNV); experiment: Laser-induced model of CNV (LI-CNV); assay type: in vivo, Long-Evans rats; conditions: flat mounts 10 days after laser injury
Experimental: Long-Evans rats (8-12 weeks old) were used to generate LI-CNV. Animals were treated in accordance to the guidelines of ARVO. Experiments were conducted with the approval of the institutional animal care ethics committee. Before each procedure, rats were anesthetized by intraperitoneal injections of a mixture of 85% ketamine (Bedford Laboratories, Bedford, Ohio) and 15% xylazine (VMD, Arendonk, Belgium). Topical anesthesia (Oxybuprocaine HCL 0.4%; Fisher Pharmaceuticals, Tel-Aviv, Israel) was applied to each eye 10 minutes before intravitreal injections or laser photocoagulation.
Laser burns (5-7 burns per eye) were generated. Intravitreal injections of all compounds were performed using a PLI-100 Pico-Injector (Medical System Corp., Greenvale, N.Y.) two days following the laser to allow for CNV development, and every 2 days thereafter for a total of 10 days. iMfs were injected only once, two days after laser injury was performed.
Experimental groups included: 4 μl of PBS, 1 μl of 100 μg/μl infliximab, 1 μl of 100 μg/μl aflibercept, 1 μl of 100 μg/μl infliximab with 1×10^5 M(IFNγ and LPS) suspended in 4 μl of PBS; 1 μl of 100 μg/μl aflibercept with 1×10^5 M(IFNγ and LPS) suspended in 4 μl of PBS; and 1×10^5 M(IFNγ and LPS) suspended in 4 μl of PBS, for a total of 5 experimental groups and 1 control group. Each experimental group included 8 injected eyes of 4 rats. The compound dosage was previously described (Xu et al., (2008)). Antibiotic ointment (5% Chloramphenicol) was applied after every injection. Choroid-RPE and retinal flat mounts were prepared 10 days following the laser injury.
RPE-choroidal flat-mounts were fixated for one hour in 4% PFA and suspended overnight in isolectin solution (GS-Ib4 Alexa 594 staining solution, Molecular Probes, Eugene, Oreg.) containing 200 mM NaN3 and 1 mM CaCl2). Flat mounts were then washed 6 times for 20 minutes in PBS and embedded on a slide with a mounting medium. The CNV area around each laser injury was measured using the ImageJ software.

[2] = system: choroidal sprouting (choroid-sclera complex with RPE in Matrigel); experiment: Choroid-sprouting assay (CSA), ex-vivo angiogenesis assay; assay type: cell-based, C57/BL6J mice; conditions: fixed after 8 days
Experimental: Cytokines were added to the media based on the maximal level of each cytokine via ELISA of M(IFNγ and LPS)-derived media. Five (5) cytokines were tested (n=8; replicates for each cytokine): 0.25 ng/μl VEGF, 0.5 ng/μl IL-8, 2.5 ng/μl IL-6, 0.05 ng/μl IL-1β, and 0.8 5 ng/μl TNFα (PeproTech, Rocky Hill, N.J., USA). Anti-TNF (infliximab, 100 μg/μl Remsima, Celltrion Inc., South Korea) and anti-VEGF (Aflibercept, 40 μg/μl, Bayer Pharma AG, Berlin, Germany), with or without iMfs' supernatant were also studied in the CSA. Compounds' concentrations were based on previous studies (Grattendick et al., (2008)). Controls included medium-treated CSA and iMfs' supernatant treated CSA.
C57/BL6J 4-6 weeks old mice, treated in accordance with the guidelines of the Association for Research in Vision and Ophthalmology (ARVO), were utilized to generate the CSA. Experiments were conducted with the approval of the institutional animal care ethics committee. Five (5) minutes after injecting with ketamine, animals were evaluated for responses and euthanized by cervical dislocation. Eyes were immediately enucleated and kept in ice-cold ECGS medium containing 100 units/ml penicillin-streptomycin and 1% glutamine before dissection. A choroid-sclera complex from the mice was gently dissected along with retinal pigment epithelium (RPE). The complex was cut into 5-6 1 mm long pieces. Fragments were embedded in 30 μl of growth factor-reduced-Matrigel™ (BD Biosciences, Cat. 354230) in 24-well plates. The thickness of the Matrigel™ was approximately 0.4 mm. Plates were then incubated for 10 minutes in 37° C., in a 5% CO2 cell culture incubator without medium to solidify the Matrigel™. Five hundred (500) μl of medium containing ECGM (C-22010, Promocell, Germany) 2.5% supplement mix (C-9215, Promocell, Germany), 5% FCS, 100 units/ml penicillin-streptomycin, and 1% glutamine, was added to each well. For the experimental groups containing the iMfs' supernatant, the medium was replaced with 250 μl of iMfs' supernatant. Medium for each well was changed every 3 days, and the cultures were fixed with 4% PFA after 8 days. Cultures were viewed with an inverted phase-contrast CKX41 Olympus microscope, and images were photographed with an Olympus DP70 digital camera (Olympus, Tokyo, Japan).
ImageJ software was used for sprouting area quantification. Sprouting area was selected by the software and measured after excluding the choroid tissue. Background (control well, for each plate, supplemented with medium only) was subtracted and analysis was performed for each sample. Ratios of each well of experimental group and its relative control from the same eye were calculated and averaged with its replicates.

[3] = intravitreal injection together with 1×10^5 M(IFNγ and LPS) iMfs
[4] = intravitreal injection, substance alone, compared to PBS
[5] = substance added alone to CSA medium, cytokines at maximal level found in M(IFNγ and LPS) media, infliximab 100 μg/μl

Substance | Mean of CNV size±SEM [1, 3] | Mean of CNV size±SEM [1, 4] | Mean of relative ratio between treated and untreated wells±SEM (sprouting area) [2, 5] | Mean of relative ratio between treated and untreated wells±SEM (sprouting area) ([2]; with M(IFNγ and LPS)s' supernatant)
Aflibercept [anti-VEGF] | 0.02±0.001 | 0.024±0.002 | – | –
IL-1β: recombinant cytokine (PeproTech), 0.05 ng/μl | – | – | 0.8±0.2 | –
TNFα | – | – | > 1.6±0.2 | –
IL-8: recombinant cytokine (PeproTech), 0.5 ng/μl | – | – | 0.47±0.14 | –
VEGF | – | – | 0.86±0.08 | –
IL-6: recombinant cytokine (PeproTech), 2.5 ng/μl | – | – | 0.64±0.1 | –
infliximab [anti-TNF] | > 0.036±0.004 | 0.045±0.005 | 1.14±0.06 | > 1.06±0.04
